# Source: paper PMC8605905 (Oxidative Medicine and Cellular Longevity, 2021)
# Key:
# Aβ-GFP SH-SY5Y cells = test: Real-time PCR of Aβ-GFP RNA; assay type: cell-based, Human; conditions: 5 μM
# Description: To measure the Aβ-GFP/tauRD-DsRed RNA expression on day 8, total RNA was extracted from collected cells and reverse-transcribed to cDNA (SuperScript III reverse transcriptase; Invitrogen, Waltham, MA, USA). Real-time quantitative PCR was performed using 100 ng of cDNA and the gene-specific TaqMan fluorogenic probe PN4331348 (EGFP) or customized Assays-by-Design probe for DsRed and 4326321E (HPRT1) (StepOnePlus Real-time PCR system, Applied Biosystems, Foster City, CA, USA). The RNA expression level was calculated using the formula 2^ΔCt, ΔCT = CT (control) − CT (target), in which CT indicates the cycle threshold.
# caspase 1 = test: Caspase 1 activity in ΔK280 tauRD-DsRed cells; assay type: cell-based, Human; conditions: 10 μM, ∆K280 tauRD-DsRed cells
# Description: Aβ-GFP or ∆K280 tauRD-DsRed SH-SY5Y cells were seeded into 6-well plates (5 × 10^5/well) and treated with retinoic acid, coumarin-chalcone derivatives, and doxycycline as previously described. On day 8, cells were collected and lysates were prepared with six freeze/thaw cycles. The supernatant was collected by centrifugation, followed by measurement of the caspase 1 activity in 50 μg aliquots of cell extract using the ICE fluorometric assay kit (BioVision, Milpitas, CA, USA). Following incubation of the mixture at 37°C for 2 h, fluorescence was measured with excitation/emission wavelengths at 400/505 nm (FLx800 fluorescence microplate reader). In addition, the collected cells were lysed by sonication. Acetylcholinesterase (AChE) activity in the supernatant was determined in 10 μg aliquots of cell extracts using the AChE activity assay kit (Sigma-Aldrich) according to the manufacture's protocol. Finally, the absorbance at 412 nm was measured using a Multiskan GO spectrophotometer (Thermo Fisher Scientific).
compound,measurement,setting,value
"CN(C)c1ccc(/C=C/C(=O)c2c(O)c3ccccc3oc2=O)cc1 [LM-021, (E)-3-(3-(4-(dimethylamino)phenyl)acryloyl)-4-hydroxy-2H-chromen-2-one]",Aβ-GFP RNA levels,Aβ-GFP SH-SY5Y cells,did not significantly modify
same,Caspase 1 activity,caspase 1,lowered caspase 1 activity
